Assay results: patent US5922554A, “Inhibition of cellular uptake of cholesterol” (The Regents of the University of California, priority 1996, dated 1999)

Tests used:
fibroblast monolayers [1] = experiment: Influx/uptake of ^3 H-FC (free cholesterol) from labeled LDL (or plasma, HDL) into normal fibroblast monolayers; format: cell-based, human; set-up: Emax: dose or concentration left out as unconfirmed; details: for effect on uptake of ^3 H-FC from LDL: up to 60 μM; for FC Influx: LDL-FC 60.2 μg ml^-1, 60 min, 37° C., 30 min preequilibration with inhibitor at: Na-azide 1 mM, NH4-vanadate 1 mM, NEM 2 mM, KNO3 50 mM, progesterone 30 μM, forskolin 30 μM, IBMX 100 μM, chloroquine 20 μM; for FC Influx, % (PBS only = 100.0): same concentrations and conditions as Table 3 FC influx, 60 min; for inhibition at higher concentration (words): up to 100 μM; for effect on LDL FC uptake: Table 3 conditions
fibroblast monolayers [2] = experiment: Transfer of intracellular ^3 H-FC to the cell surface (cholesterol oxidase accessibility); format: cell-based, human; details: for % transfer of intracellular ^3 H-FC to the cell surface, relative to rate in absence of inhibitor: NEM 2 mM, KNO3 50 mM, nocodazole, brefeldin A, vinblastine 40 μM, pulse labeled 2 min 31° C., then 30 min 31° C.
Procedure: This assay utilized the finding (see Example 1) that only FC in the caveolar fraction of the plasma membrane fraction was modified by cholesterol oxidase in unfixed fibroblast monolayers.
The rate at which intracellular LDL-derived ^3 H-FC became accessible at the cell surface was measured as follows. Cell monolayers were labeled with ^3 H-FC LDL under the conditions shown for each experiment. Unbound and adsorbed LDL were removed as described above. In some experiments metabolic inhibitors of different transport steps were then added for 30 min at 15° C. […] Cholesterol oxidase (Boehringer-Manheim, Indianapolis, Ind., USA) was added in PBS to a final concentration of 1 U ml^-1. Incubation was for 4 h at 0° C. The cells were washed with ice-cold PBS, and extracted with 0. 1N NAOH. Cell total lipid was extracted with chloroform-methanol (1:1 v/v). […] .
Fibroblast monolayers were prelabeled with FC-labeled LDL for 2 min at 31° C. Medium and surface-bound labeled LDL were removed as described above. The cells were incubated with inhibitors of intracellular transport for 30 min at 15° C. Movement of FC label to the cell surface remained negligible (FIG. 11).
^a Relative to rate in the absence of inhibitor. Values are expressed

fibroblast monolayers [3] = experiment: D2O-Ficoll density gradient fractionation of ^3 H-FC labeled fibroblasts; format: cell-based, human; details: clathrin fraction d 1.12 g ml^-1; NEM 2 mM
Procedure: Early endosomal vesicles were labeled with LDL-derived ^3 H-FC by a modification of procedures described by Woodman & Warren (1991) J. Cell Biol., 112:1133-1141. Fibroblast monolayers in 10 cm dishes were washed in ice-cold PBS. The cells were labeled by incubation (2 h, 4° C.) with ^3 H-FC LDL. The monolayers were washed in PBS and brought to 31° C. for 0-15 min. The cells were then quickly chilled on ice, and cold unlabeled LDL was added (15 min, 4° C.) to displace any remaining surface-bound labeled LDL and all subsequent steps were carried out at 0-4° C.
Cells from three 10 cm dishes were used for each gradient. Monolayers were washed with 140 mM sucrose, 0.5 mM MgCl2, 1 mM EGTA, 20 mM 2-[N-morpholino]ethanesulfonic acid (MES), 70 mM potassium acetate, pH 6.6 (`vesicle buffer`) (Woodman & Warren, supra.). The cells were scraped from the dishes. Dithiothreitol (1 mm) and protease inhibitors (PMSF, 200 μg ml^-1; benzamidine 0.5 mM; soybean trypsin inhibitor 10 μg ml^-1; leupeptin 1 μg ml^-1) were added. The cells were broken with a Dounce homogenizer (15 strokes) and the homogenate centrifuged at 500× g for 5 min. Ribonuclease A (50 μg ml^-1) was added. After 30 min a second centrifugation was carried out (7000× g, 30 min). Supernatant (~2 ml) was layered on a 10 ml continuous gradient of 2% Ficoll-9% D2 O to 20% Ficoll-90% D2 O in vesicle buffer containing 1 mM dithiothreitol. Centrifugation in a Beckman SW41 rotor was carried out at 80,000× g for 16 h. Fractions (~0.6 ml) were collected dropwise and the distribution of FC label determined. Because of slight variation in fraction size between gradients, data were normalized to 20 fractions for comparison between experiments. Solution density was determined gravimetrically using 100 μl portions of each fraction. The density of a given fraction was reproducible ±0.5% between experiments.
Fibroblast monolayers were incubated with ^3 H-FC LDL for 30 min at 31° C. to predominantly label the intermediate density vesicle fraction. Cell surface LDL was removed as described above. […]

fibroblasts = details: Hokland et al. 1993; cited from earlier work
fibroblast monolayers [4] = experiment: Cholesterol efflux from ^3 H-cholesterol labeled fibroblasts to plasma; format: cell-based, human
Procedure: Fibroblast monolayers were equilibrated with ^3 H-FC-labeled native plasma or with isolated ^3 H-labeled LDL, as specified for each experiment. Following incubation, the dishes were washed with albumin-complete PBS and then (×4) with complete PBS. They were then incubated for 3 min with unlabeled plasma or lipoprotein fractions and the rate of appearance of radioactivity in the medium determined. Samples of medium (100 μl) were immediately chilled in ice water and centrifuged (10 min, 2000× g) at 0-2° C. ^3 H-cholesterol radioactivity in the supernatant was either assayed directly, or fractionated by agarose gel electrophoresis. FC efflux was linear as previously reported (Kawano et al., Biochemistry, 32: 5025-5028 (1993)).
For electrophoresis, 20 μl portions of labeled medium were added to strips of 0.75% w/v agarose in 0.025M barbital buffer (pH 8.6) and separated as previously described (Fielding et al., Biochemistry, 30: 8551-8557 (1991)). 2.5 mm gel fractions were then collected, and radioactivity measured. The location of major lipoprotein classes was determined from strips run simultaneously with whole native plasma equilibrated (60 min, 37° C.) with ^3 H-FC.
^c Percent loss of label from cells prelabeled (10 min, 37° C.

[5] = test system: LDL-receptor deficient cells (GM 2000 line); experiment: Influx of ^3 H-FC from LDL into LDL-receptor-deficient fibroblasts (GM 2000)
[6] = Homo sapiens, Fibroblast, read-out: Influx of 3H-FC, % Remaining

| Compound | inhibition of LDL-FC pathway (summary, words) (fibroblast monolayers [1]) | transport of intracellular ^3 H-FC to the cell surface/caveolae (fibroblast monolayers [2]) | FC Influx (fibroblast monolayers [1]) | FC Influx, % (PBS only = 100.0) (fibroblast monolayers [1]) | effect on LDL FC uptake (fibroblast monolayers [1]) | other results |
| --- | --- | --- | --- | --- | --- | --- |
| CO/C1=C\C(C)=C\[C@@H](C)[C@@H](O)[C@@H](C)C/C(C)=C/C=C/[C@H](OC)[C@@H]([C@@H](C)[C@@H](O)[C@H](C)[C@@]2(O)C[C@@H](O)[C@H](C)[C@@H](C(C)C)O2)OC1=O [Bafilomycin A1] | inhibited | – | – | – | – | activity at 45 µM (fibroblast monolayers [1]; [6]): 70 ± 4%; Emax (fibroblast monolayers [1]; Homo sapiens, Fibroblast, read-out: maximal effect on uptake of FC from LDL): 30% |
| C[C@H]1CCC/C=C/[C@@H]2C[C@H](O)C[C@H]2[C@H](O)/C=C/C(=O)O1 [Brefeldin A] | not inhibited | unaffected | – | – | – | % transfer of intracellular ^3 H-FC to the cell surface, relative to rate in absence of inhibitor (fibroblast monolayers [2]): 95 ± 5%; effect on uptake of ^3 H-FC from LDL (fibroblast monolayers [1]): without effect |
| CCN(CC)CCCC(C)Nc1ccnc2cc(Cl)ccc12 (stereo not shown) [Chloroquine] | – | – | 1.34 ± 0.04 µg | 102.3% | – | LDL-FC influx (discussion, words) (fibroblast monolayers [1]): no effect |
| C=C1C(C)C2C(Cc3ccccc3)NC(=O)C23C(OC(C)=O)/C=C/C(C)(O)C(=O)C(C)CC=CC3C1O (stereo not shown) [Cytochalasin D] | inhibited | no effect | – | – | – | FC label in density gradient (fibroblast monolayers [3]): A similar result; activity at 40 µM (fibroblast monolayers [1]; [6]): 38 ± 2%; inhibition at 40 µM (fibroblast monolayers [1]; Homo sapiens, Fibroblast, read-out: reduction of uptake of ^3 H-FC from LDL (average)): 65%; inhibition at higher concentration (words) (fibroblast monolayers [1]; listed as Cytochalasin): No greater inhibition; inhibition at higher concentration (words) (fibroblast monolayers [1]; listed as cytochalasin D): no increase in inhibition |
| C=C[C@@]1(C)CC(=O)[C@]2(O)[C@@]3(C)[C@@H](O)CCC(C)(C)[C@@H]3[C@H](O)[C@H](OC(C)=O)[C@@]2(C)O1 [Forskolin] | not inhibited | – | 1.39 ± 0.01 µg | 105.3% | no effect | transfer of newly-synthesized cholesterol to plasma membrane (fibroblasts): stimulated; LDL-FC influx (discussion, words) (fibroblast monolayers [1]): unaffected |
| CC(C)Cn1c(=O)n(C)c(=O)c2[nH]cnc21 [IBMX, isobutyl methylxanthine] | not inhibited | – | 1.46 ± 0.04 µg | 110.8% | no effect | transfer of newly-synthesized cholesterol to plasma membrane (fibroblasts): stimulated; LDL-FC influx (discussion, words) (fibroblast monolayers [1]): unaffected |
| O=[N+]([O-])[O-].[K+] [KNO3] | inhibited | inhibited the return of FC to the cell surface, but less effectively than did nocodazole | 0.28 ± 0.02 µg | 21.0% | – | initial rate of efflux of FC from prelabeled cells to plasma (fibroblast monolayers [4]): increased several-fold; % transfer of intracellular ^3 H-FC to the cell surface, relative to rate in absence of inhibitor (fibroblast monolayers [2]): 70 ± 4%; time course of inhibition of ^3 H-FC transfer compared with NEM (FIG. 8) (fibroblast monolayers [1]; 50 mM KNO3, data not shown): comparable time course; inhibition of uptake of free cholesterol from LDLs (summary) (fibroblast monolayers [1]; NEM or KNO3, Example 1, FIG. 8): > 80% |
| CC[C@@]1([C@@H]2O[C@@H]([C@H]3O[C@@](O)(CO)[C@H](C)C[C@@H]3C)C[C@@H]2C)CC[C@H]([C@]2(C)CC[C@]3(C[C@H](O)[C@@H](C)[C@@H]([C@@H](C)[C@@H](OC)[C@H](C)C(=O)O)O3)O2)O1 [Monensin] | inhibited | – | – | – | effective in reducing the selective uptake of FC from LDL | selective uptake of FC from LDL, LDL-receptor deficient cells ([5]; GM2000): Comparable results; FC label in density gradient (fibroblast monolayers [3]): A similar result; inhibition at higher concentration (words) (fibroblast monolayers [1]): no increase in inhibition |
| [NH4+].[O]=[V](=[O])[O-] [NH4 -vanadate] | not inhibited | – | 1.36 ± 0.08 µg | 103.2% | without effect | – |
| [N-]=[N+]=[N-].[Na+] [Na-azide] | not inhibited | – | 1.18 ± 0.02 µg | 89.5% | without effect | – |
| COC(=O)Nc1nc2ccc(C(=O)c3cccs3)cc2[nH]1 [Nocodazole] | not inhibited | reduced | – | – | – | transport of the vesicles to the plasma membrane (summary, words) (fibroblast monolayers [2]): inhibited; % transfer of intracellular ^3 H-FC to the cell surface, relative to rate in absence of inhibitor (fibroblast monolayers [2]): 40 ± 1%; activity at 60 µM (fibroblast monolayers [1]; Homo sapiens, Fibroblast, cytochalasin D 40 μM, monensin 40 μM, nocodazole 60 μM, bafilomycin A1 45 μM, means ±1 SD of three experiments, read-out: Influx of 3H-FC, % Remaining): 101 ± 6%; effect on uptake of ^3 H-FC from LDL (fibroblast monolayers [1]): without effect |
| CC[C@]1(O)C[C@@H]2CN(CCc3c([nH]c4ccccc34)[C@@](C(=O)OC)(c3cc4c(cc3OC)N(C)[C@H]3[C@@](O)(C(=O)OC)[C@H](OC(C)=O)[C@]5(CC)C=CCN6CC[C@]43[C@@H]65)C2)C1 [Vinblastine] | not inhibited | unaffected | – | – | – | inhibition at 40 µM (fibroblast monolayers [2]; Homo sapiens, Fibroblast, read-out: % transfer of intracellular ^3 H-FC to the cell surface, relative to rate in absence of inhibitor): 100 ± 2%; effect on uptake of ^3 H-FC from LDL (fibroblast monolayers [1]): without effect |
| [3H]C1C([3H])[C@@]2(C)C(=CC[C@H]3[C@@H]4CC[C@H]([C@H](C)CCCC(C)C)[C@@]4(C)CC[C@@H]32)C[C@H]1O (stereo partly shown) [^3 H-FC, 1,2-^3 H-cholesterol] | – | – | – | – | – | cholest-4-en-3-one fraction of total label (fibroblast monolayers [2]; 0-4° C., 4 experiments): 0.8±0.2%; t1/2 of increase in oxidized FC (transfer to cell surface) (fibroblast monolayers [2]; 31° C., FIG. 11): ~ 2 min; internalized FC localized to oxidase-sensitive fraction (fibroblast monolayers [2]; after 2 min pulse label, 31° C.): about 40% |
| CC(=O)O[C@H]1C(=O)[C@@]2(C)[C@H]([C@H](OC(=O)c3ccccc3)[C@]3(O)C[C@H](OC(=O)[C@H](O)[C@@H](NC(=O)c4ccccc4)c4ccccc4)C(C)=C1C3(C)C)[C@]1(OC(C)=O)CO[C@@H]1C[C@@H]2O [taxol] | not inhibited | – | – | – | – | effect on uptake of ^3 H-FC from LDL (fibroblast monolayers [1]): without effect |
| sodium heparin | – | – | – | – | – | inhibition of influx of FC from LDL ([5]; heparin 0.1 mg/ml, GM 2000 cells): Approximately 80%; inhibition of influx of FC from LDL (fibroblast monolayers [1]; heparin 0.1 mg/ml, normal cells, LDL 150 μg FC ml^-1, 10 min 37° C.): Approximately 80% |
